Measurements published in the CheMixHub viscosity set.

Test: xn = mol fraction of the nth substance listed

COc1ccccc1N + CCCCOCCO
303.15 K, 101 kPa
Details | viscosity [mPa·s]
x1 = 0.115 | 3.21
x1 = 0.2262 | 3.538
x1 = 0.3338 | 3.847
x1 = 0.438 | 4.116
x1 = 0.539 | 4.334
x1 = 0.6369 | 4.494
x1 = 0.7318 | 4.629
x1 = 0.8238 | 4.741
x1 = 0.9132 | 4.839

C1CCCCC1 + CCC(C)O
viscosity [mPa·s], 101.33 kPa
Details | 298.15 K | 303.15 K | 313.15 K
x1 = 0.0998 | 2.334 | – | 1.442
x1 = 0.2045 | 1.841 | – | 1.19
x1 = 0.3002 | 1.524 | – | 1.023
x1 = 0.4007 | 1.285 | – | 0.8968
x1 = 0.4995 | 1.116 | – | 0.8098
x1 = 0.6 | 1.001 | – | 0.7497
x1 = 0.7028 | 0.9323 | – | 0.7106
x1 = 0.8005 | 0.8895 | – | 0.6896
x1 = 0.9036 | 0.872 | – | 0.6801
x2 = 0.1002 | – | 0.8606 | –
x2 = 0.1978 | – | 0.9196 | –
x2 = 0.3031 | – | 1.004 | –
x2 = 0.4019 | – | 1.107 | –
x2 = 0.4961 | – | 1.244 | –
x2 = 0.5974 | – | 1.435 | –
x2 = 0.695 | – | 1.68 | –
x2 = 0.799 | – | 1.996 | –
x2 = 0.8924 | – | 2.321 | –

COC(C)=O + Cc1ccccc1
viscosity [mPa·s], 101 kPa
Details | 298.15 K | 308.15 K
x1 = 0.0413 | 0.536 | 0.487
x1 = 0.1501 | 0.502 | 0.459
x1 = 0.2505 | 0.476 | 0.437
x1 = 0.3495 | 0.454 | 0.419
x1 = 0.4385 | 0.437 | 0.404
x1 = 0.4859 | 0.429 | 0.397
x1 = 0.5491 | 0.42 | 0.389
x1 = 0.6486 | 0.407 | 0.377
x1 = 0.7514 | 0.397 | 0.367
x1 = 0.848 | 0.39 | 0.36
x1 = 0.9445 | 0.386 | 0.354

COC(C)=O + CCCCCCCCCCCCCCCC
298.15 K, 101.3 kPa
Details | viscosity [mPa·s]
x1 = 0.0393 | 2.924
x1 = 0.118 | 2.619
x1 = 0.3657 | 1.819
x1 = 0.4814 | 1.491
x1 = 0.5357 | 1.35
x1 = 0.652 | 1.086
x1 = 0.7625 | 0.8431
x1 = 0.8682 | 0.6349
x1 = 0.9609 | 0.4379
